Reference: US20220274947A1, “NOVEL HETEROARYL-TRIAZOLE COMPOUNDS AS PESTICIDES” (Bayer Aktiengesellschaft, priority 2019, published 2022)

What was measured:
Assay type in all cases: in vivo
Myzus persicae [1] = test: Myzus persicae oral test; conditions: 120 h, read-out: activity (mortality)
Procedure, shortened: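 Percent mortality was recorded at day 5, where 0% means no aphids killed. Compound prepared from an acetone concentrate diluted in water and combined with IPL41 medium containing sugar was offered to mixed-stage green peach aphids, which sucked it through a parafilm seal.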

Myzus persicae [2] = test: Myzus persicae spray test; conditions: in Brassica rapa, foliar, 120 h, read-out: activity (mortality), application rate 100 g/ha, spray, Chinese cabbage leaf disks, after 5 days
Procedure, shortened: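 Aphid mortality in % was assessed 5 days after spraying; leaf disks of Brassica pekinensis carrying mixed-instar green peach aphids were treated. Spray preparation: active compound in acetone plus dimethylformamide, diluted with emulsifier-containing water (1000 ppm).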

Ctenocephalides felis [3] = test: Ctenocephalides felis oral test (CTECFE Oral); conditions: 48 h, read-out: activity (mortality)
Procedure, shortened: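 Percent mortality was recorded 2 days after roughly 20 adult Ctenocephalides felis fed on treated cattle blood. The blood was warmed to 37 °C beneath a parafilm membrane, with the fleas kept at room temperature. Compound was dissolved in DMSO and diluted into the blood to test concentration.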

[4] = tested on: Blattella germanica strain PAULINIA; test: Blattella germanica test (BLTTGE surface treatment & contact assay); conditions: surface concentration 20 mg/m^2, glazed tile, exposure 30 minutes, 24 hours after contact, read-out: efficacy (mortality)
Protocol: Blattella germanica Test (BLTTGE Surface Treatment & Contact Assay) Solvent: Aceton+2000 ppm rapeseed oil methyl ester (RME)
In order to produce a sufficient, active ingredient containing solution it is necessary to solve the test compound in the solvent-mix (acetone at 2 mg/ml/RME 2000 ppm). This solution is pipetted onto a glazed tile and after evaporation of the acetone, adult animals of the species Blattella germanica strain […] are placed onto the dried surface. The exposure time is 30 minutes. Mortality in percent (%) is determined 24 hours after contact of the insects to the treated surface. 100% mortality means that all tested insects are dead, whereas 0% means that no insect died.

Rhipicephalus microplus [5] = test: Rhipicephalus (Boophilus) microplus injection test (BOOPMI Inj); conditions: 168 h, application rate 4 μg/tick, injection into adult engorged female ticks, egg deposition after 7 days, read-out: activity (efficacy: 100% means all eggs are infertile)
Procedure, shortened: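 Compound in DMSO, 1 μL, injected abdominally into five adult engorged females, which were then held in a climate chamber. Read-out is egg fertility, scored from deposition at 7 days, with unclear eggs followed to hatching (~42 days); 0% means all eggs fertile, 100% all infertile.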

[6] = tested on: Anopheles funestus strain FUMOZ-R; test: Anopheles funestus test (ANPHFU surface treatment & contact assay); conditions: surface concentration 20 mg/m^2, glazed tile, exposure 30 minutes, 24 hours after contact, read-out: efficacy (mortality)
Protocol: Anopheles funestus Test (ANPHFU Surface Treatment & Contact Assay) Solvent: Aceton+2000 ppm rapeseed oil methyl ester (RME)
In order to produce a sufficient, active ingredient containing solution it is necessary to solve the test compound in the solvent-mix (acetone at 2 mg/ml/RME 2000 ppm). This solution is pipetted onto a glazed tile and after evaporation of the acetone, adult mosquitoes of the species Anopheles funestus strain FUMOZ-R (Hunt et al., Med. Vet. Entomol. 2005 September; 19(3): 271-275) are placed onto the dried surface. The exposure time is 30 minutes. Mortality in percent (%) is determined 24 hours after contact of the insects to the treated surface. 100% mortality means that all tested insects are dead, whereas 0% means that no insect died.

[7] = tested on: Aedes aegypti strain MONHEIM; test: Aedes aegypti test (AEDSAE surface treatment & contact assay); conditions: exposure 30 minutes, 24 hours after contact, read-out: efficacy (mortality)
Procedure, shortened: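 Compound dissolved in acetone (2 mg/ml) with 2000 ppm rapeseed oil methyl ester, pipetted onto glazed tile and dried. Adult mosquitoes exposed on the surface for 30 min; percent mortality scored 24 h after contact.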

Ctenocephalides felis [8] = test: Ctenocephalides felis in-vitro contact test, adult cat flea (CTECFE Cont); conditions: application rate 5 μg/cm^2 (=500 g/ha), adult cat fleas, after 48 hours, read-out: activity (efficacy: 100% means all fleas are dead or moribund)
Procedure, shortened: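 Efficacy, as percent of fleas dead or moribund, was scored 48 h after adults (5-10 per tube) were placed in glass tubes whose walls carried dried compound at 5 μg/cm^2 (900 ppm solution). Moribund meant failing to climb away from a 45-50° C. hot plate within 5 min.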

Tetranychus urticae = Tetranychus urticae spray test, OP-resistant; conditions: foliar, 144 h, application rate 500 g/ha, French bean leaf disks, after 6 days
Protocol: Tetranychus urticae—Spray Test OP-Resistant Solvent: 78.0 parts by weight acetone • 1.5 parts by weight dimethylformamide Emulsifier: alkylarylpolyglycol ether
To produce a suitable preparation of active compound, 1 part by weight of active compound is mixed with the stated amount of solvents and is diluted with water, containing an emulsifier concentration of 1000 ppm, to the desired concentration. Further test concentrations are prepared by dilution with emulsifier containing water.
French bean (Phaseolus vulgaris) leaf disks infected with all instars of the two spotted spidermite (Tetranychus urticae), are sprayed with a preparation of the active ingredient of the desired concentration.
After 6 days mortality in % is determined. 100% means all spider mites have been killed and 0% means none of the spider mites have been killed.

Rhipicephalus microplus [9] = test: Rhipicephalus (Boophilus) microplus in-vitro contact test, larval cattle tick, strain Parkhurst (BOOPMI Cont); conditions: application rate 5 μg/cm^2 (=500 g/ha), tick larvae, after 48 hours, read-out: activity (efficacy: 100% means all larvae are dead or moribund)
Procedure, shortened: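 After 48 h at 27° C. and 85% humidity, percent dead or moribund larvae was scored from negative geotactic behaviour. Larvae (20-50, Parkhurst strain, synthetic pyrethroid-resistant) were exposed in tubes coated with compound from acetone, 900 ppm corresponding to 5 μg/cm^2.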

Structure (SMILES): CC(=O)N(C)c1ccc(-n2ncnc2[C@H](C)NC(=O)c2cc(Cl)cc(C(F)(F)F)c2)nc1 [II-80]
- mortality at 0.8 ppm (Myzus persicae [1]): 100%
- mortality at 100 g/ha (Myzus persicae [2]): 90%
- mortality at 100 ppm (Ctenocephalides felis [3]): 100%
- mortality at 20 mg/m2 [4]: 80 to 100%
- pest or weed control at 0.004 mg (Rhipicephalus microplus [5]): 80%
- mortality at 20 mg/m2 [6]: 80 to 100%
- mortality at 4 mg/m2 ([7]; surface concentration 4 mg/m^2, glazed tile): 80 to 100%
- mortality at 20 mg/m2 ([7]; surface concentration 20 mg/m^2, glazed tile): 80 to 100%
- pest or weed control at 5 µg/cm2 (Ctenocephalides felis [8]): 100%
- mortality at 500 g/ha (Tetranychus urticae): 90%
- pest or weed control at 5 µg/cm2 (Rhipicephalus microplus [9]): 100%
